Counter-ions that a name gives are not always drawn.
Tests used:
[1] = test system: HP1 heterochromatin pathway; test: Small molecule high-throughput flow cytometry screen, CiA:Oct4 N118/N163 cells with rapamycin (csHP1α recruitment); type: cell-based, mouse; conditions: 10 μM compound, + 6 nM rapamycin, 48 hrs
Source text: The CiA:Oct4 recruitment system in mouse embryonic stem cells contains Gal4 and Zinc finger DNA binding arrays and a downstream nuclear eGFP gene in place of a single Oct4 allele as previously described (Hathaway et al., 2012). The CiA:Oct4 N118/N163 cell line containing viral integrations of N118 and N163 plasmids (N118-nLV EF-1α-Gal-FKBPx1-HA-PGK-Blast, N163-nLV EF-1α-HP1α (CS)-Frbx2(Frb+FrbWobb)-V5-PGK-Puro) was used for all experiments unless otherwise stated. The CiA:Oct4 N205 line containing the lentiviral construct N205 (N205-nLV EF-1α-ZFHD1-link-FKBP-HA <T2A> HP1αCS-Frbx2-V5-PGK-Blast) was used for shRNA experiments. CiA:Oct4 N118 was infected with the lentiviral construct N192 (N192-nLV Dual Promoter EF-1α-MCS-PGK-Puro HP1γ-(CS)-Frbx2(wobbmo)-V5) to yield the csHP1γ recruitment system CiA:Oct4 N118/N192. For orthogonal recruitment system, stable mESC cell line with blue fluorescent protein (BFP) reporter gene with tetracycline response elements (TRE) was generated by recombinase-mediated cassette exchange, by introducing the reporter cassette DNA in plasmid YR06 into a genetrap located on chromosome 15 at genome coordinates chr15:99941948 (Lienert et al. (2011) Nature Genetics 43(11): 1091-1097; Elling et al. (2017) Nature 550(7674): 114-118). […]
Flow cytometry was performed using an Intellicyt iQue Screener and analyzed with FlowJo software. […]

[2] = test system: TC1 ES cells; test: Whole cell histone modification levels, Western blot densitometry; type: cell-based; conditions: 48 hrs with compound, normalized over total Histone H4
Experimental: The ability to reduce global H3K9-me2 and -me3 levels with the novel HP1 inhibitors was previously examined (see FIG. 20). […] Oct4-GFP will be measured by flow cytometry, H3K9me3 enrichment by ChIP, and DNA methylation levels by bisulfite sequencing at 2, 4, and 6 days post RA addition output measurements. Expression and chromatin modifications will also be examined at other RA regulated genes such as […] using GAPDH as a control.
Referring to FIG. 20, TC1 ES cells were incubated 48 hrs with compound. Histones marks were measured by Western blot densitometry with the indicated antibody. The results were normalized over the total Histone H4 as a percentage of untreated controls.

For `COc1cc2nc(N3CCCC3)nc(N[C@H]3CCCNC3)c2cc1OC` [compound 1, (S)-6,7-Dimethoxy-N-(Piperidin-3-yl)-2-(Pyrrolidin-1-yl)Quinazolin-4-Amine Trifluoroacetic Acid Salt], the “GFP expression / % GFP (+) population despite csHP1α recruitment” value [1] was “increased expression of GFP” and the “Bulk di- and tri-H3K9 methylation” value [2] was “significantly block”.

— patent US11254654B2, “Heterochromatin gene repression inhibitors” (The University of North Carolina at Chapel Hill, priority 2017, dated 2022)
